In US20130157973A1, “PHARMACEUTICAL COMPOSITIONS AND METHODS FOR TREATING GASTROINTESTINAL INFECTIONS AND DISORDERS” (priority 2011, published 2013):
Where two headings read alike, the source gives them in different places.

How the values were obtained:
[1] = test system: serum HCV RNA; assay: Phase IIa studies: serum HCV RNA by quantitative polymerase chain reaction; type: in vivo, hepatitis C virus
Description: Two randomized, double-blind phase IIa studies of Compound B administered two times per week for 4 weeks. Multicenter study (U.S.): 12 subjects received Compound B 0.01 mg/kg and 4 received placebo. Single center study (France): 6 subjects received 0.01 mg/kg, 11 received 0.02 mg/kg and 6 received placebo.
Serum HCV RNA was measured by quantitative polymerase chain reaction (NGI). Subjects were categorized as responders (reduction from baseline of ˜2 logs) or non-responders at the end-of-treatment visit (day 29), and at the last follow-up visit (day 113 U.S. study, and day 57 French study).

[2] = test system: IFN-α; assay: Phase IIa studies: serum type I IFN levels by bioassay; type: in vivo, human
Description: (§1) Samples for cytokines were obtained at 0, 2, 4, 6, 8, 12 and 24 h after the first dose, prior to dosing at days 8, 15, 22 or 25 (see above regarding pharmacokinetics) and day 29. Serum IL-6, IL-1RA, TNF-α and IFN-γ were measured by enzyme-linked immunosorbent assay (Immunotech, Cedex, France) and neopterin by immunoenzymatic assay (Immunotech, Cedex, France). Serum type I IFN levels were determined by bioassay. Serum 2′,5′ oligoadenylate synthetase (2′5′ AS) was measured by radioimmunoassay (Eiken Chemical Co. Ltd., Tokyo, Japan). Serum IL-12 p40 was measured by enzyme-linked immunosorbent assay (R&D Systems, Minneapolis, Minn.) Immunophenotyping of T lymphocytes in the U.S. study was performed at NGI.

[3] = Phase IIa studies in chronic HCV subjects: safety, neutrophil and lymphocyte counts, liver enzymes; type: in vivo, human; conditions: for proportion of subjects with AST elevations / proportion of subjects with ALT elevations: French study, 0.02 mg/kg group
Description: Single center study (France): 6 subjects received 0.01 mg/kg, 11 received 0.02 mg/kg and 6 received placebo.
Exclusion criteria included clinically meaningful cirrhosis on prior liver biopsy (U.S. study), positive serology for possible autoimmune hepatitis (ANA˜1:640, ASMA>1:320, ALKM antibody>1:320), hepatocellular neoplasia, anemia (<12 g/dL for men, <11 for women), thrombocytopenia (<90,000/μL), leukopenia (<2500 cells/μL), neutropenia (<1500 cells/μL, U.S. study), ALT>1000 U/L (French study) or aspartate aminotransferase (AST) or ALT>500 U/L (U.S. study), bilirubin>1 mg/dL, decompensated liver disease, other liver diseases, positive serology for HIV, positive HBsAg, prior organ transplantation, significant psychiatric disease, alcohol or drug abuse within 12 months, systemic immunomodulatory or investigational therapy within 3 months, and significant cardiac, pulmonary, systemic inflammatory or thyroid disease.
In the U.S. study, subjects were assigned centrally across centers. Active to placebo assignment was 3:1 for each cohort. Sample sizes were not prospectively powered.
All subjects were to receive study drug two times per week for 4 weeks. Subjects self-administered study drug at home except on study visits with pharmacokinetic and pharmacodynamic sampling where it was administered in the clinic. […] In the U.S. study, subjects received 0.01 mg/kg of resiquimod.
as §1, with “Serum” for “Samples for cytokines were obtained at 0, 2, 4, 6, 8, 12 and 24 h after the first dose, prior to dosing at days 8, 15, 22 or 25 (see above regarding pharmacokinetics) and day 29. Serum”

[4] = Placebo-controlled single and multiple administration tolerability studies in healthy adults; type: in vivo; conditions: single administration study in 48 healthy adults, up to 0.05 mg/kg
[5] = Single-dose pharmacokinetics of Compound B, fasted and fed cohorts; type: in vivo, human; conditions: for Cmax / AUC(0-inf) / half-life / Tmax: human, plasma, oral; for Cmax: read-out: Cmax Mean (% CV); for AUC(0-inf): read-out: AUCinf Mean (% CV); for Tmax: read-out: Tmax Median (Q1, Q3)
Description: Table 1 and Table 2 present the PK parameters of Compound B following the administration of a single dose of Compound B in the fasted cohorts and fed cohorts, respectively. Mean maximal plasma concentration values (Cmax) were higher with increasing dose in the fasted treatment groups. Mean maximal plasma concentration values were lower when Compound B (8 mg) was administered with moderate- or high-fat meal or following a high fat-meal than when Compound B was administered under fasting conditions.

[6] = of the 11 subjects with at least a 1-log reduction at any time
[7] = 0.3 mg, single dose 0.3 mg, Cohort 1, fasted
[8] = 1 mg, single dose 1 mg, Cohort 2, fasted
[9] = 2 mg, single dose 2 mg, Cohort 3, fasted
[10] = 4 mg, single dose 4 mg, Cohort 4, fasted
[11] = 6 mg, single dose 6 mg, Cohort 5, fasted
[12] = 8 mg, single dose 8 mg post high-fat meal (4 hours), Cohort 9
[13] = 8 mg, single dose 8 mg with a high-fat meal, IFE Cohort
[14] = 8 mg, single dose 8 mg with a moderate-fat meal, Cohort 8
[15] = 8 mg, single dose 8 mg, Cohort 6, fasted
[16] = 12 mg, single dose 12 mg, Cohort 7, fasted

CCCCOc1nc(N)c2c(n1)N(Cc1cccc(CN3CCCC3)c1)CC(=O)N2 [Compound B, 4-amino-2-butoxy-8-(3-(pyrrolidin-1-ylmethyl)benzyl)-7,8-dihydropteridin-6(5H)-one]
subjects with at least a 1-log reduction in HCV levels at any time during the study ([1]; 0.01 mg/kg group): five
subjects with at least a 1-log reduction in HCV levels at any time during the study ([1]; 0.02 mg/kg group): six
subjects with maximal reduction in viral levels of at least 1-log ([1]; 0.02 mg/kg group): Two
subjects with maximal reduction in viral levels of at least 2-logs ([1]; 0.02 mg/kg group): three
subjects with maximal reduction in viral levels of at least 3-logs ([1]; 0.02 mg/kg group): one
responders per protocol (2 log reduction) at end-of-treatment visit ([1]; 0.02 mg/kg, day 29, not sustained on follow-up): one
subjects whose HCV Rmax occurred at day 29 or after [1, 6]: 5 subjects
subjects whose HCV Rmax occurred within 48 h after dose 1 [1, 6]: 6 subjects
effect on viral levels ([1]; oral 0.02 mg/kg): transiently reduced viral levels
serum HCV RNA levels after the first dose ([1]; peaking at about 24 h, trending toward baseline by 48 h): dose-dependent decrease
IFN-α Rmax post-dose 1 of individual subject ([2]; 0.02 mg/kg subject who discontinued treatment for severe grade flu-like symptoms): 3946 IU/mL
IFN-α Rmax post-dose 1 of individual subject ([2]; 0.02 mg/kg subject who discontinued treatment for severe grade lymphopenia): 15,557 IU/mL
proportion of subjects with AST elevations ([3]; day 1 (6/11)): 55%
proportion of subjects with ALT elevations ([3]; day 1 (9/11)): 82%
proportion of subjects with AST elevations ([3]; day 29 (1/9)): 11%
proportion of subjects with ALT elevations ([3]; day 29 (5/9)): 56%
ALT and AST levels ([3]; U.S. study, 0.01 mg/kg): Neither ALT nor AST levels appeared to be affected
changes in physical examinations ([3]; both studies): no clinically meaningful changes
Clinically relevant changes in CD4+ lymphocyte counts or CD4+/CD8+ lymphocyte ratios ([3]; human, in vivo): not observed
adverse effects ([3]; oral 0.02 mg/kg): adverse effects similar to interferon-alpha
maximum tolerated oral dose [4]: 0.03 mg/kg
Mean maximal plasma concentration fed vs fasting ([5]; 8 mg with moderate- or high-fat meal or following a high-fat meal, vs fasting conditions): lower
Cmax [5, 7]: 0.184 ng/mL
AUC(0-inf) ([5]; 0.3 mg, single dose 0.3 mg, Cohort 1, fasted, limited terminal phase data, interpret with caution): 2.97 ng·h/mL
half-life ([5]; 0.3 mg, single dose 0.3 mg, Cohort 1, fasted, plasma measured only to 24 hours, interpret with caution, read-out: T½ Median (Q1, Q3) (converted)): 10.4 h
Tmax [5, 7]: 3 h
Cmax [5, 8]: 0.44 ng/mL
AUC(0-inf) [5, 8]: 9.23 ng·h/mL
Tmax [5, 8]: 3 h
half-life ([5]; 1 mg, single dose 1 mg, Cohort 2, fasted, read-out: T½ Median (Q1, Q3) (converted)): 26.9 h
Cmax [5, 9]: 0.633 ng/mL
AUC(0-inf) [5, 9]: 11.3 ng·h/mL
Tmax [5, 9]: 6 h
half-life ([5]; 2 mg, single dose 2 mg, Cohort 3, fasted, read-out: T½ Median (Q1, Q3) (converted)): 24.3 h
Cmax [5, 10]: 2.93 ng/mL
AUC(0-inf) [5, 10]: 57.2 ng·h/mL
Tmax [5, 10]: 4 h
half-life ([5]; 4 mg, single dose 4 mg, Cohort 4, fasted, read-out: T½ Median (Q1, Q3) (converted)): 17.2 h
Cmax [5, 11]: 7.26 ng/mL
AUC(0-inf) [5, 11]: 76.9 ng·h/mL
Tmax [5, 11]: 2.5 h
half-life ([5]; 6 mg, single dose 6 mg, Cohort 5, fasted, read-out: T½ Median (Q1, Q3) (converted)): 14.7 h
AUC(0-inf) [5, 12]: 79.5 ng·h/mL
Cmax [5, 12]: 4.53 ng/mL
Tmax [5, 12]: 5 h
half-life ([5]; 8 mg, single dose 8 mg post high-fat meal (4 hours), Cohort 9, read-out: T½ Median (Q1, Q3) (converted)): 20.5 h
AUC(0-inf) [5, 13]: 71.4 ng·h/mL
Cmax [5, 13]: 5.24 ng/mL
Tmax [5, 13]: 3 h
half-life ([5]; 8 mg, single dose 8 mg with a high-fat meal, IFE Cohort, read-out: T½ Median (Q1, Q3) (converted)): 23.6 h
AUC(0-inf) [5, 14]: 51.1 ng·h/mL
Cmax [5, 14]: 2.04 ng/mL
Tmax [5, 14]: 2 h
half-life ([5]; 8 mg, single dose 8 mg with a moderate-fat meal, Cohort 8, read-out: T½ Median (Q1, Q3) (converted)): 21.6 h
Cmax [5, 15]: 8.34 ng/mL
AUC(0-inf) [5, 15]: 109 ng·h/mL
Tmax [5, 15]: 2.51 h
half-life ([5]; 8 mg, single dose 8 mg, Cohort 6, fasted, read-out: T½ Median (Q1, Q3) (converted)): 19.5 h
Cmax [5, 16]: 12 ng/mL
AUC(0-inf) [5, 16]: 140 ng·h/mL
Tmax [5, 16]: 1.51 h
half-life ([5]; 12 mg, single dose 12 mg, Cohort 7, fasted, read-out: T½ Median (Q1, Q3) (converted)): 16.3 h
half-life ([5]; all groups except the 0.3-mg group, read-out: Median terminal half-life values across groups): 14.7 to 26.9 h
